Test [1] concerns the target T1, Ack1 (Homo sapiens, UniProt Q07912). Nature of the test: Ack1 dose-response radiometric peptide kinase assay. In kind it is biochemical. How it is done:
40 ng of recombinant Ack1 was incubated with saturating quantities of peptide substrate ([…] (SEQ ID NO:1) and in the presence of a compound in Ack1 kinase buffer (20 mM Tris pH 7.4, 10 mM MgCl2, 0.1 mM NaVO4, 0.5 mM dithiothreitol). [^32P]-γ-ATP was added in a total concentration of 10 μM ATP to initiate the reaction. Following 30 minute incubation at 30° C., phosphorylated peptide substrate was captured by spotting the reaction on P81 cationic filter paper and unincorporated [^32P]-γ-ATP was removed by washing in a solution of phosphoric acid. Phosphorylated peptide was then quantified by autoradiography or by Phosphorlmager analysis or by scintillation counting.
(§1) Thus, this Example proposed derivatives of compound 1 that inhibit Ack1 in the cellular context while retaining its target specificity.
Target sequence in this assay (Q07912 whole entry): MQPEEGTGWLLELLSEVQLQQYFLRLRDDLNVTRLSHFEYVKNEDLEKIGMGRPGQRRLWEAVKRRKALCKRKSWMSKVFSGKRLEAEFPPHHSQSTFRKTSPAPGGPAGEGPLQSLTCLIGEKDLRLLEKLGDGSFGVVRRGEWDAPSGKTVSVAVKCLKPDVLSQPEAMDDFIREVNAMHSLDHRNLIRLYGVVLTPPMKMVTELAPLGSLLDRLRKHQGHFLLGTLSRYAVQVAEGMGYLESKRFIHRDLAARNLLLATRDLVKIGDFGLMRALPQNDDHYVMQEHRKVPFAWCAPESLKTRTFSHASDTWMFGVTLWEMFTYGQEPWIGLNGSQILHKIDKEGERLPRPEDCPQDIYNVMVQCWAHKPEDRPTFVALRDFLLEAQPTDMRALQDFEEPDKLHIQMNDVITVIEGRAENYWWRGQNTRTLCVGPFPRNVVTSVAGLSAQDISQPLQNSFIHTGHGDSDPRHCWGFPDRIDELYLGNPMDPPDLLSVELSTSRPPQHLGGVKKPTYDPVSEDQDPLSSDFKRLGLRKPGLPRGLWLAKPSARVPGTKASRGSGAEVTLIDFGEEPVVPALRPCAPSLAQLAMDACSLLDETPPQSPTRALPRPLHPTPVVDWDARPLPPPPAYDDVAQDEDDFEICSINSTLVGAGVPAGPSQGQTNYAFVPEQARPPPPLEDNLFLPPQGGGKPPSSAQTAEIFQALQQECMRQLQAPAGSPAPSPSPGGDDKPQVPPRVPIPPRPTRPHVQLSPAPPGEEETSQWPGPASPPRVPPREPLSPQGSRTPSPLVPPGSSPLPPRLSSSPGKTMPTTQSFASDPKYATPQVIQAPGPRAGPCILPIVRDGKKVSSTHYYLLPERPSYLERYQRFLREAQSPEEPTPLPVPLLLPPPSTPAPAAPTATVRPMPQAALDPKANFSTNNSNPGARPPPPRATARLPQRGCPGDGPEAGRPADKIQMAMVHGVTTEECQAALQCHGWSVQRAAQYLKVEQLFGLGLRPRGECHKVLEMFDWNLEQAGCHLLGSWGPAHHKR

The test system of test [2] is Ack1 autophosphorylation (Tyr284). The test is described as follows: Ack1 autophosphorylation in HEK293 cells (Western blot phospho-Ack1). It counts as cell-based. Particulars: HEK293 cells expressing Ack1.
Text: as §1

In test [3] the target is T2, IKK-2 (Homo sapiens, UniProt O14920).
T2 sequence (O14920 1-756): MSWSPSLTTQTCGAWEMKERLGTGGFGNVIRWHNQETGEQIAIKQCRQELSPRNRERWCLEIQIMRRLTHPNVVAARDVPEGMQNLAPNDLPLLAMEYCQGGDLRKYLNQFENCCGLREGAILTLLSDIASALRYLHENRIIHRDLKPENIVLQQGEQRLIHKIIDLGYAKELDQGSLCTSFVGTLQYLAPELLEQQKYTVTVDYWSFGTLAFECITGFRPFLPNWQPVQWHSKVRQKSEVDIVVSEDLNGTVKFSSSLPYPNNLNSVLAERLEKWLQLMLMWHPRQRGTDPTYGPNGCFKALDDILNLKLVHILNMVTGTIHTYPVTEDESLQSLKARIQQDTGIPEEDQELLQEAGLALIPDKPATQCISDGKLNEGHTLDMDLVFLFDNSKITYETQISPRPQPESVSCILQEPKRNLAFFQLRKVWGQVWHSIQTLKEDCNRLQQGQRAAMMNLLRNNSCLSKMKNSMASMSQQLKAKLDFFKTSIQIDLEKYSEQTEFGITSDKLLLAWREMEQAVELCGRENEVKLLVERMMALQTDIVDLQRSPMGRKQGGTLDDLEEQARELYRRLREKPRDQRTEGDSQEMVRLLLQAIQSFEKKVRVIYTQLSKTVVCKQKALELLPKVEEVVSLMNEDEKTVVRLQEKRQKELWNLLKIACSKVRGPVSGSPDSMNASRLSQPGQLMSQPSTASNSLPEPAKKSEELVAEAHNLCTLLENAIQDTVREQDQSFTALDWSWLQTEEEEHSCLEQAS
The test is described as follows: Kinase panel screen at 500 nM: IKK-2. Particulars: 500 nM compound, 10 μM ATP. In kind it is biochemical. The source says:
(§2) To directly test the kinase selectivity of a large number of established kinase inhibitors, high throughput kinase assays were employed against a panel of ^˜300 recombinant human protein kinases. An economical method based on conventional filter-binding assays was used at a nanoliter scale using radiolabeled ATP that directly measures kinase catalytic activity toward a polypeptide and/or protein substrate. […] The library of inhibitors comprises 160 pure compounds known to inhibit kinases representing all major protein kinase families, as well as a limited number of compounds that were not developed to target protein kinases (FIG. 1A).
(§3) The kinase panel tested represents all major human protein kinase. For simplicity, all compounds were tested at a concentration of 0.5 μM in the presence of 10 μM ATP.
(§4) Each kinase-inhibitor pair was tested in duplicate and results were expressed as percent remaining kinase activity compared to solvent (DMSO) control reactions. Disparate replicates were eliminated from the analysis.
(§5) As described above, a large-scale parallel screening of a collection of 160 known kinase inhibitors was conducted against a panel of 294-300 recombinant human protein kinases. Goals included the identification of novel inhibitor scaffolds for new kinase targets and the revelation of the target specificities of this panel of research compounds. […]

Test [4] concerns the target T3, FLT3 (Homo sapiens, UniProt P36888).
T3 sequence (P36888 27-993): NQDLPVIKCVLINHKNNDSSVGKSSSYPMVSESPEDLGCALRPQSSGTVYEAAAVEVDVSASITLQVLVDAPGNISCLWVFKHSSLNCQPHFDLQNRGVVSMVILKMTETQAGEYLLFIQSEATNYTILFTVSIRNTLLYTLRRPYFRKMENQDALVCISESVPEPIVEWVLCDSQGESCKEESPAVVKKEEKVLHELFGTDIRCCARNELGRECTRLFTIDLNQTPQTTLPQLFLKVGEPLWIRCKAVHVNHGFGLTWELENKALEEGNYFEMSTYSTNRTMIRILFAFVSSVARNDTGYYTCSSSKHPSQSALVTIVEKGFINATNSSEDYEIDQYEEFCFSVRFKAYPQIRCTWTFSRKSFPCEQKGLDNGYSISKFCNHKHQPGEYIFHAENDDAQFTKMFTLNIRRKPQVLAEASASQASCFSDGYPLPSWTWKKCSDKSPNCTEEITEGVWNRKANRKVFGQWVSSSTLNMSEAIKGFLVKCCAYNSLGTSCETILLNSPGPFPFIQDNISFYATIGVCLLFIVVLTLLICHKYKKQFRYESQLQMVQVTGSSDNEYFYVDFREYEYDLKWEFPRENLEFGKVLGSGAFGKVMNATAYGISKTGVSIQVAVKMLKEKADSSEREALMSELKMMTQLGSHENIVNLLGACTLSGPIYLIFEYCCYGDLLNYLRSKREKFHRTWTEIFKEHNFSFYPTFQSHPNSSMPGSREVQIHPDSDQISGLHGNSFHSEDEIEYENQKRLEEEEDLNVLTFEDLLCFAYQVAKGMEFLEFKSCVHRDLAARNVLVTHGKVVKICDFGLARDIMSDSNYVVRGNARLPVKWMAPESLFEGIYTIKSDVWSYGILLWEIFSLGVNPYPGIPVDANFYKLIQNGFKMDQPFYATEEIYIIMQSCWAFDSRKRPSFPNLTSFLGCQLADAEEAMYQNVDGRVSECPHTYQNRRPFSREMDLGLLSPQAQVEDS
The test is described as follows: Kinase panel screen at 500 nM: FLT3. In kind it is biochemical. Particulars: 500 nM compound, 10 μM ATP. An excerpt: (§6) Disparate replicates were eliminated from the analysis.

The subject of test [5] is JAK1/2. Nature of the test: Kinase panel screen at 500 nM: JAK1/2. To be noted: 500 nM compound, 10 μM ATP. In kind it is biochemical, human.
Text: as §2, §3, §4, §5

The target in test [6] is RET (Homo sapiens, UniProt P07949). Nature of the test: Kinase panel screen at 500 nM: RET. In kind it is biochemical. Particulars: 500 nM compound, 10 μM ATP.
Text: as §6

The target of test [7] is Tyk2 (Homo sapiens, UniProt P29597). Nature of the test: Kinase panel screen at 500 nM: Tyk2. Particulars: 500 nM compound, 10 μM ATP. In kind it is biochemical.
Text: as §6

In test [8] the target is T1, Ack1. Nature of the test: Kinase panel screen at 500 nM: Ack1. It counts as biochemical. Details: only the kinase domain of Ack1 and a limited additional region C-terminal (amino acids 110-476). Particulars: 500 nM compound, 10 μM ATP; for inhibition at 0.5 µM: duplicate, read-out: inhibition of Ack1 catalytic activity.
Target sequence in this assay (Q07912 110-476): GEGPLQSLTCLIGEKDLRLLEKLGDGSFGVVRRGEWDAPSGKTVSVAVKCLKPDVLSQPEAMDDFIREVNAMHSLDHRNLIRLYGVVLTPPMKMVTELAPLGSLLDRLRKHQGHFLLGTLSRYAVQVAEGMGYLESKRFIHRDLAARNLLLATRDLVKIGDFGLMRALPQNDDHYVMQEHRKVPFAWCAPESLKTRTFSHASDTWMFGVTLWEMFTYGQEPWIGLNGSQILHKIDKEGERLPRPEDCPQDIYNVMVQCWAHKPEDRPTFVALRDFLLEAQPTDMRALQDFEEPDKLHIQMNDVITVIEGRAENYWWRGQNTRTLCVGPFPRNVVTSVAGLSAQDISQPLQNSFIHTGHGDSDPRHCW
Procedure: Each inhibitor was tested in duplicate at 500 nM against each kinase using radiolabeled ATP (10 μM total ATP) and a peptide or protein substrate.
For test [9], the target named is Aurora B (Homo sapiens, UniProt Q96GD4). Nature of the test: Kinase panel screen at 500 nM: Aurora B. It counts as biochemical. To be noted: 500 nM compound, 10 μM ATP.
Text: as §6

Test [10] deals with non-receptor tyrosine kinase BRK (Homo sapiens, UniProt Q13882). Nature of the test: Kinase panel screen at 500 nM: BRK. It counts as biochemical. To be noted: 500 nM compound, 10 μM ATP.
Text: as §6

For test [11], the system named is panel of 300 protein kinases. Nature of the test: Kinase selectivity across panel of 300 kinases (Gini coefficient). In kind it is biochemical, human. Particulars: 500 nM. The procedure:
as §6
The data were analyzed for compounds that inhibit Ack1. […] Inhibitor selectivity was quantitatively assessed using the Gini coefficient (Piotr P et al. (2007) J. Med. Chem., 50:5773-9; and, Lynette A et al. (2009) J. Chem. Biol. 2:131-51).

The subject of test [12] is Aurora. Particulars: Heron et al. 2006; cited from earlier work.
In test [13] the test system is Aurora. To be noted: Heron et al. 2006; cited from earlier work. This is another data set of the same source.

“Also recorded” adds a separate entry of the source. Some results are limits rather than exact numbers.

Chain of RET (P07949 29-1114): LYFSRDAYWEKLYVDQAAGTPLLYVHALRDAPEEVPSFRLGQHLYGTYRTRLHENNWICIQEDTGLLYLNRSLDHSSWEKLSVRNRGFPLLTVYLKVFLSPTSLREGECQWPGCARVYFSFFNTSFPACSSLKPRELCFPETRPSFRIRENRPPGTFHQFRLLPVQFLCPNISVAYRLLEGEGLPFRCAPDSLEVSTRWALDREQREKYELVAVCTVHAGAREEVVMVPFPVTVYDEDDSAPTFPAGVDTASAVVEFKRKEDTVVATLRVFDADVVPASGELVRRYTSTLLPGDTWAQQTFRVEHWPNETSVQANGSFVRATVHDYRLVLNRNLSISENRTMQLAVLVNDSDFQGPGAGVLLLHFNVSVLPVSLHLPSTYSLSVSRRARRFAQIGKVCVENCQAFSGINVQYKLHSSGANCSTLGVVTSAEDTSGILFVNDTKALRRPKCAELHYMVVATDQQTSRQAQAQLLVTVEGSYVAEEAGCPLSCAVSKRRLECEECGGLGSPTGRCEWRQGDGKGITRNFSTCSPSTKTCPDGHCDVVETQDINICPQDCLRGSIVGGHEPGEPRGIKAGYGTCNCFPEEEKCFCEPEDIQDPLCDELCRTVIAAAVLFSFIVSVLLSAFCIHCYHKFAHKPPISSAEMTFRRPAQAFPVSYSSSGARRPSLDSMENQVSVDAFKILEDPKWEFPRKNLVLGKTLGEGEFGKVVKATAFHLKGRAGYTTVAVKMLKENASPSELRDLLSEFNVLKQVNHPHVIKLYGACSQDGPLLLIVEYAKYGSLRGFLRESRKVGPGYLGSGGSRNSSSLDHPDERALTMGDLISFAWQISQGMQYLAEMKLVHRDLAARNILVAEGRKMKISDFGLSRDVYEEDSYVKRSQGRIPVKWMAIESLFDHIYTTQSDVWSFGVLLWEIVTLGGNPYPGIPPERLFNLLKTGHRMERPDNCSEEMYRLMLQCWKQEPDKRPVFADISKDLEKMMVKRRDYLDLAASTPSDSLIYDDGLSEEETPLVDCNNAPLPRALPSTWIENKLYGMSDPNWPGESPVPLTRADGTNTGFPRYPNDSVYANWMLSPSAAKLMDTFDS
Chain of Aurora B (Q96GD4 whole entry): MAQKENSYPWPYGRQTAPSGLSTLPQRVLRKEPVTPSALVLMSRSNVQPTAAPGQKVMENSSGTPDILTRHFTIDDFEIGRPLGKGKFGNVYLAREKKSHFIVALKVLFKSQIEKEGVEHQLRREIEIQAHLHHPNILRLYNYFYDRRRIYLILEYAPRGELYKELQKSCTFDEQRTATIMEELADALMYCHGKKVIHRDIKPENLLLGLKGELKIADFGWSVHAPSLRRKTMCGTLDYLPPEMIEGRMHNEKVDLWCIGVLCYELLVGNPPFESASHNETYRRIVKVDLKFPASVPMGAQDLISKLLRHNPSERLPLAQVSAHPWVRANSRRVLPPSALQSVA
Chain of Tyk2 (P29597 whole entry): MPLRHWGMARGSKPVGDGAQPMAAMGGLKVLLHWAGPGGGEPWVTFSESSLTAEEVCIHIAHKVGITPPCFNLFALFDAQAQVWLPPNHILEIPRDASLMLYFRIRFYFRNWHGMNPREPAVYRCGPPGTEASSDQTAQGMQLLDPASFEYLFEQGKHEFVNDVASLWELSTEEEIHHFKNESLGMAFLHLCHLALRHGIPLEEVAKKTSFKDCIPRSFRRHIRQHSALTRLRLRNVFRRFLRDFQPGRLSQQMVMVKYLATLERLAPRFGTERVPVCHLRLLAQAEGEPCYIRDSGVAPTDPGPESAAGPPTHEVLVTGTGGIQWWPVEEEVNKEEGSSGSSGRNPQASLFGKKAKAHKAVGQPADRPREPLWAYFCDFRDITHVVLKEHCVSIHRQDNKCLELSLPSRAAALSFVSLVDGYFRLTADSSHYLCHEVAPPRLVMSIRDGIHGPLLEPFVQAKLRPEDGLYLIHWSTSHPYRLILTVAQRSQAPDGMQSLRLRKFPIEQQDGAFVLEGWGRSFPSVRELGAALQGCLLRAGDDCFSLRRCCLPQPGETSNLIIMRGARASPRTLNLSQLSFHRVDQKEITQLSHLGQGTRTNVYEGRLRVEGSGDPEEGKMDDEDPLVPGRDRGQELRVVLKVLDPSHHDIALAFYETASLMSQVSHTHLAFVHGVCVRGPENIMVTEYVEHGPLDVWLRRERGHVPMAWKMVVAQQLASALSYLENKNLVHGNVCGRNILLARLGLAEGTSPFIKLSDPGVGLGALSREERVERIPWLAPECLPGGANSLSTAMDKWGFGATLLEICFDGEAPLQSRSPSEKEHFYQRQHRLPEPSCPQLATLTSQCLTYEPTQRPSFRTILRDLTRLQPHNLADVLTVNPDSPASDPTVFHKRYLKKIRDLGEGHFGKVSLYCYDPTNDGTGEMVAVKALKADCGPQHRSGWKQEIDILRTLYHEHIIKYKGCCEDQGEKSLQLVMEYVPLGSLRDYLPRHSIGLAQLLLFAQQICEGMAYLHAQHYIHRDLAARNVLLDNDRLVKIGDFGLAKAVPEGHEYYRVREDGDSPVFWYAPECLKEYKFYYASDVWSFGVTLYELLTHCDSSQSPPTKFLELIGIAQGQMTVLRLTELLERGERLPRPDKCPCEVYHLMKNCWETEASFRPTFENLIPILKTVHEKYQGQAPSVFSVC
Chain of non-receptor tyrosine kinase BRK (Q13882 whole entry): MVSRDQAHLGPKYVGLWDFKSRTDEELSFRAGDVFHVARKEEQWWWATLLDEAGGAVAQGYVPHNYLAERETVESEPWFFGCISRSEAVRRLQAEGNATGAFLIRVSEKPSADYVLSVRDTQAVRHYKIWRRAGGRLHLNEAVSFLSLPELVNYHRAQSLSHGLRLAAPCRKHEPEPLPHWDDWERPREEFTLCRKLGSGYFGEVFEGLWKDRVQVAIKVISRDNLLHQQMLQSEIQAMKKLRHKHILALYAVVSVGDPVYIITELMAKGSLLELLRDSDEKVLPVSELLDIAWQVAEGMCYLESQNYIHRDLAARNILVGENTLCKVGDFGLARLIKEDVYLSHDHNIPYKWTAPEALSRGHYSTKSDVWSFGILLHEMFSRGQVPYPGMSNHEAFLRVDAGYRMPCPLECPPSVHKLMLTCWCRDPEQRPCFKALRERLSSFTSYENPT

Consider `COc1cc2c(Nc3ccc(NC(=O)c4ccccc4)cc3)ncnc2cc1OCCCN1CCOCC1` [Compound 1.1], for which the “in vitro Ack1 activity compared to compound 1” value in test [1] (data not shown) was “comparable in vitro activity to compound 1”. Besides, the “inhibition of Ack1 autophosphorylation in cells” value in test [2] is on record as “potently inhibited Ack1 autophosphorylation in cells; also recorded: inhibits Ack1 in cells”.

What is called inhibition is the relative decrease from the control value, in per cent. For `NC(=O)Nc1sc(-c2ccc(F)cc2)cc1C(N)=O` [Compound 3], the results for the inhibition at 0.5 µM in test [3] and in test [8] were 91% and 94%, respectively. Besides, the “inhibition of catalytic activity of FLT3” value in [4] is on record as “partial inhibition”. For the same compound, the “inhibition of catalytic activity of JAK1/2” value in test [5] is “partial inhibition”. The “inhibition of catalytic activity of RET” value in test [6] is listed as “partial inhibition”. Besides, in test [7], the “inhibition of catalytic activity of Tyk2” value is “partial inhibition”.

As a reminder, the IC50 is the concentration that inhibits the measured activity by half. Take `COc1cc2ncnc(Nc3ccc(NC(=O)c4ccccc4)cc3)c2cc1OC` [Compound 1]: the inhibition at 0.5 µM was 75% in test [9], greater than 50% in test [10] and 95% in test [8]. For the same compound, the IC50 in [1] (dose-response, 10 μM ATP, read-out: IC50 against Ack1 in vitro) was 5 nM. Moreover, the “inhibition of Ack1 autophosphorylation in cells” value in test [2] is “did not reduce Ack1 autophosphorylation”. In test [11], the “kinase selectivity for Ack1 over other kinases” value is given as “unusually selective”. Further, the “cellular efficacy against Aurora” value in [12] is “poor cellular efficacy”. Also, in test [13], the “in vitro activity against Aurora” value is listed as “good in vitro activity”.

Consider `CN[C@@H]1C[C@H]2O[C@@](C)([C@@H]1OC)n1c3ccccc3c3c4c(c5c6ccccc6n2c5c31)C(=O)NC4` [staurosporine, reference compound], for which the “inhibition of Ack1 in the screen” value in [8] is given as “inhibited Ack1 in addition to many other kinases”.

(Values after US8658655B2, “Inhibition of activated cdc42-associated kinase 1” (Fox Chase Cancer Center, priority 2011, dated 2014).)
